Assay [1] deals with α-isomaltosylglucosaccharide-forming enzyme. Briefly: Transfer-acceptor specificity, enzyme of A19 strain. Type of assay: biochemical, Arthrobacter globiformis A19 strain. The settings on record: acceptor 1.6%, PINE-DEX #100 donor 4%, one unit/g donor, 30° C., pH 8.4, 24 hours. The procedure:
(§1) Using various saccharides, it was tested whether the saccharides were used as transferring-acceptors for α-isomaltosylglucosaccharide-forming enzyme. A solution of D-glucose, D-xylose, L-xylose, D-galactose, D-fructose, D-mannose, D-arabinose, D-fucose, D-psicose, L-sorbose, L-rhamnose, methyl-α-glucopyranoside, methyl-β-glucopyranoside, N-acetyl-glucosamine, sorbitol, α,α-trehalose, isomaltose, isomaltotriose, cellobiose, gentibiose, glycerol, maltitol, lactose, sucrose, α-cyclodextrin, β-cyclodextrin, γ-cyclodextrin, or L-ascorbic acid was prepared. To each solution with a saccharide concentration of 1.6% was added “PINE-DEX #100”, a partial starch hydrolyzate, as a saccharide donor, to give a concentration of 4%, and admixed with one unit/g saccharide donor, d.s.b., of either of purified specimens of α-isomaltosylglucosaccharide-forming enzyme from Bacillus globisporus C9 strain obtained by the method in Experiment 4-2, Bacillus globisporus C11 strain obtained by the method in Experiment 7-2, Bacillus globisporus N75 strain obtained by the method in Experiment 11-2, or Arthrobacter globiformis A19 strain obtained by the method in Experiment 15-2, and incubated at 30° C. and pH 6.0 for 24 hours, except that pH 8.4 was used for the enzyme from Arthrobacter globiformis A19 strain. The reaction mixtures of the post-enzymatic reactions were analyzed on gas chromatography (abbreviated as “GLC” hereinafter) for monosaccharides and disaccharides as acceptors, and on HPLC for trisaccharides as acceptors to confirm whether these saccharides could be used as the transfer acceptors of the above enzymes. In the case of performing GLC, the following apparatuses and conditions were used: GLC apparatus, “GC-16A” commercialized by Shimadzu Corporation, Tokyo, Japan; column, a stainless-steel column, 3 mm in diameter and 2 m in length, packed with 2% “SILICONE OV-17/CHROMOSOLV W”, commercialized by GL Sciences Inc., Tokyo, Japan; carrier gas, nitrogen gas at a flow rate of 40 ml/min under temperature conditions of increasing from 160° C. to 320° C. at an increasing temperature rate of 7.5° C./min; and detection, a hydrogen flame ionization detector. In the case of performing HPLC analysis, the following apparatuses and conditions were used: HPLC apparatus, “CCPD” commercialized by Tosoh Corporation, Tokyo, Japan; column, “ODS-AQ-303” commercialized by YMC Co., Ltd., Tokyo, Japan; eluent, water at a flow rate of 0.5 ml/min; and detection, a differential refractometer.

For assay [2] the test system is unchanged. Put plainly: Action on saccharides as substrates (TLC), enzyme of N75 strain. Also noted: key: −: it showed no change; +: it showed a slight reduction of the color spot of the substrate and the formation of other reaction product; ++: it showed a high reduction of the color spot of the substrate and the formation of other reaction product; +++: it showed a substantial disappearance of the substrate spot and the formation of other reaction product. The settings on record: two units/g substrate, substrate 2% (w/v), 30° C., pH 6.0, 24 hours. Type of assay: biochemical, Bacillus globisporus N75 strain. An excerpt:
(§2) To examine the saccharides in the supernatant, they were separated by developing twice on silica gel thin-layer chromatography (abbreviated as “TLC” hereinafter) using, as a developer, a mixture solution of n-butanol, pyridine, and water (=6:4:1 by volume), and, as a thin-layer plate, “[…]™ 60”, an aluminum plate (20×20 cm) for TLC commercialized by Merck & Co., Inc., Rahway, USA. The coloration of the separated total sugars by the sulfuric acid-methanol method and that of the reducing saccharides by the diphenylamine-aniline method detected a non-reducing saccharide positive at an Rf value of about 0.31 on the former detection method but negative on the latter detection method.
(§3) It was tested whether any saccharides can be used as substrates for α-isomaltosylglucosaccharide-forming enzyme. For the purpose, a solution of maltose, maltotriose, maltotetraose, maltopentaose, maltohexaose, maltoheptaose, isomaltose, isomaltotriose, panose, isopanose, α,α-trehalose, kojibiose, nigerose, neotrehalose, cellobiose, gentibiose, maltitol, maltotriitol, lactose, sucrose, erlose, selaginose, maltosyl glucoside, or isomaltosyl glucoside was prepared.
(§4) To each of the above solutions was added two units/g substrate of a purified specimen of α-isomaltosylglucosaccharide-forming enzyme from either Bacillus globisporus C9 strain obtained by the method in Experiment 4-2, Bacillus globisporus C11 strain obtained by the method in Experiment 7-2, Bacillus globisporus N75 strain obtained by the method in Experiment 11-2, or Arthrobacter globiformis A19 strain obtained by the method in Experiment 15-2, and the resulting each solution was adjusted to give a substrate concentration of 2% (w/v) and incubated at 30° C. and pH 6.0 for 24 hours, except for using pH 8.4 for the enzyme from Arthrobacter globiformis A19 strain. The enzyme solutions before and after the enzymatic reactions were respectively analyzed on TLC disclosed in Experiment 1 to confirm whether the enzymes acted on these substrates.

For assay [3] the test system is unchanged. Briefly: Transfer-acceptor specificity, enzyme of C11 strain. Type of assay: biochemical, Bacillus globisporus C11 strain. The settings on record: acceptor 1.6%, PINE-DEX #100 donor 4%, one unit/g donor, 30° C., pH 6.0, 24 hours. The procedure: as §1
The test system is the same in assay [4]. Briefly: Transfer-acceptor specificity, enzyme of N75 strain. Type of assay: biochemical, Bacillus globisporus N75 strain. The settings on record: acceptor 1.6%, PINE-DEX #100 donor 4%, one unit/g donor, 30° C., pH 6.0, 24 hours. As to the method: as §1
The test system is the same in assay [5]. Briefly: Action on saccharides as substrates (TLC), enzyme of C11 strain. Also noted: key: −: it showed no change; +: it showed a slight reduction of the color spot of the substrate and the formation of other reaction product; ++: it showed a high reduction of the color spot of the substrate and the formation of other reaction product; +++: it showed a substantial disappearance of the substrate spot and the formation of other reaction product. The settings on record: two units/g substrate, substrate 2% (w/v), 30° C., pH 6.0, 24 hours. Type of assay: biochemical, Bacillus globisporus C11 strain.
Source text: as §2, §3, §4

Assay [6] shares this test system. Put plainly: Action on saccharides as substrates (TLC), enzyme of C9 strain. Type of assay: biochemical, Bacillus globisporus C9 strain. The settings on record: two units/g substrate, substrate 2% (w/v), 30° C., pH 6.0, 24 hours. Also noted: key: −: it showed no change; +: it showed a slight reduction of the color spot of the substrate and the formation of other reaction product; ++: it showed a high reduction of the color spot of the substrate and the formation of other reaction product; +++: it showed a substantial disappearance of the substrate spot and the formation of other reaction product.
Source text: as §2, §3, §4

Assay [7] shares this test system. Put plainly: Transfer-acceptor specificity, enzyme of C9 strain. Type of assay: biochemical, Bacillus globisporus C9 strain. The settings on record: acceptor 1.6%, PINE-DEX #100 donor 4%, one unit/g donor, 30° C., pH 6.0, 24 hours. As to the method:
as §1

Assay [8] has the same test system. Put plainly: Action on saccharides as substrates (TLC), enzyme of A19 strain. Type of assay: biochemical, Arthrobacter globiformis A19 strain. Also noted: key: −: it showed no change; +: it showed a slight reduction of the color spot of the substrate and the formation of other reaction product; ++: it showed a high reduction of the color spot of the substrate and the formation of other reaction product; +++: it showed a substantial disappearance of the substrate spot and the formation of other reaction product. The settings on record: two units/g substrate, substrate 2% (w/v), 30° C., pH 8.4, 24 hours.
Source text: as §2, §3, §4

As for `O=C[C@H](O)[C@@H](O)[C@H](O[C@@H]1O[C@H](CO)[C@@H](O)[C@H](O)[C@H]1O)[C@H](O)CO` [Cellobiose, cellobiose], the “Product of transferring reaction, Enzyme of A19 strain” value (from here on “Product … of A19 strain”) in assay [1] is on record as “++ (a saccharide-transferred product was detected in an amount over ten percent through transfer reaction to acceptor)”. For the same molecule, in assay [2], the “Enzymatic action, Enzyme of N75 strain” value was “−”. Besides, the “Product of transferring reaction, Enzyme of C11 strain” value (from here on “Product … of C11 strain”) in assay [3] is listed as “++ (a saccharide-transferred product was detected in an amount over ten percent through transfer reaction to acceptor)”. For the same molecule, in assay [4], the “Product of transferring reaction, Enzyme of N75 strain” value (from here on “Product … of N75 strain”) was “++ (a saccharide-transferred product was detected in an amount over ten percent through transfer reaction to acceptor)”. In assay [5], the “Enzymatic action, Enzyme of C11 strain” value is given as “−”. In addition, the “Enzymatic action, Enzyme of C9 strain” value in assay [6] is recorded as “−”. Moreover, in assay [7], the “Product of transferring reaction, Enzyme of C9 strain” value (from here on “Product … of C9 strain”) is listed as “++ (a saccharide-transferred product was detected in an amount over ten percent through transfer reaction to acceptor)”. Further, the “Enzymatic action, Enzyme of A19 strain” value in assay [8] is “−”.

For the molecule `OC[C@H]1O[C@@H](OC[C@H]2OC(O)[C@H](O)[C@@H](O)[C@@H]2O)[C@H](O)[C@@H](O)[C@@H]1O` (some centres unmarked) [Gentibiose, gentibiose], the “Product … of A19 strain” value in assay [1] is recorded as “+ (a saccharide-transferred product was detected in an amount over one percent but less than 10% through transfer reaction to acceptor)”. Besides, the “Enzymatic action, Enzyme of N75 strain” value in assay [2] is “−”. In assay [3], the “Product … of C11 strain” value is “++ (a saccharide-transferred product was detected in an amount over ten percent through transfer reaction to acceptor)”. The “Product … of N75 strain” value in assay [4] is “++ (a saccharide-transferred product was detected in an amount over ten percent through transfer reaction to acceptor)”. The “Enzymatic action, Enzyme of C11 strain” value in assay [5] was “−”. Also, in assay [6], the “Enzymatic action, Enzyme of C9 strain” value is on record as “−”. Also, in assay [7], the “Product … of C9 strain” value is listed as “++ (a saccharide-transferred product was detected in an amount over ten percent through transfer reaction to acceptor)”. Besides, the “Enzymatic action, Enzyme of A19 strain” value in assay [8] was “−”.

On to `OC[C@H]1O[C@H](OC[C@H]2OC(O)[C@H](O)[C@@H](O)[C@@H]2O)[C@H](O)[C@@H](O)[C@@H]1O` (some centres unmarked) [Isomaltose, isomaltose], for which the “Product … of A19 strain” value in assay [1] was “+ (a saccharide-transferred product was detected in an amount over one percent but less than 10% through transfer reaction to acceptor)”. In assay [2], the “Enzymatic action, Enzyme of N75 strain” value is recorded as “−”. The “Product … of C11 strain” value in assay [3] is listed as “++ (a saccharide-transferred product was detected in an amount over ten percent through transfer reaction to acceptor)”. Moreover, in assay [4], the “Product … of N75 strain” value is on record as “++ (a saccharide-transferred product was detected in an amount over ten percent through transfer reaction to acceptor)”. Besides, the “Enzymatic action, Enzyme of C11 strain” value in assay [5] is on record as “−”. Also, the “Enzymatic action, Enzyme of C9 strain” value in assay [6] is recorded as “−”. In addition, the “Product … of C9 strain” value in assay [7] is on record as “++ (a saccharide-transferred product was detected in an amount over ten percent through transfer reaction to acceptor)”. Besides, in assay [8], the “Enzymatic action, Enzyme of A19 strain” value was “−”.

`OC[C@H]1O[C@H](OC[C@H]2O[C@H](OC[C@H]3OC(O)[C@H](O)[C@@H](O)[C@@H]3O)[C@H](O)[C@@H](O)[C@@H]2O)[C@H](O)[C@@H](O)[C@@H]1O` (some centres unmarked) [Isomaltotriose, isomaltotriose]: in assay [1], the “Product … of A19 strain” value is given as “± (a saccharide-transferred product was detected in an amount less than one percent through transfer reaction to acceptor)”. Also, in assay [2], the “Enzymatic action, Enzyme of N75 strain” value was “−”. Moreover, the “Product … of C11 strain” value in assay [3] was “++ (a saccharide-transferred product was detected in an amount over ten percent through transfer reaction to acceptor)”. In addition, the “Product … of N75 strain” value in assay [4] is “++ (a saccharide-transferred product was detected in an amount over ten percent through transfer reaction to acceptor)”. Further, in assay [5], the “Enzymatic action, Enzyme of C11 strain” value is “−”. Also, the “Enzymatic action, Enzyme of C9 strain” value in assay [6] is “−”. Moreover, the “Product … of C9 strain” value in assay [7] was “++ (a saccharide-transferred product was detected in an amount over ten percent through transfer reaction to acceptor)”. Moreover, the “Enzymatic action, Enzyme of A19 strain” value in assay [8] was “−”.
